# Experimental data from paper PMC7932537, “Quantitative profiling of protease specificity” (PLoS Computational Biology, 2021).
# Columns and labels:
# [1] = molecular target: MMP-9 (Homo sapiens, UniProt P14780); assay: K(obs) of individual phage substrates (set of 1369); type: biochemical; settings: MMP9
# [2] = molecular target: T1, MMP-2 (Homo sapiens, UniProt P08253); assay: as above; type: biochemical; settings: MMP2
# T1 sequence (P08253 110-660): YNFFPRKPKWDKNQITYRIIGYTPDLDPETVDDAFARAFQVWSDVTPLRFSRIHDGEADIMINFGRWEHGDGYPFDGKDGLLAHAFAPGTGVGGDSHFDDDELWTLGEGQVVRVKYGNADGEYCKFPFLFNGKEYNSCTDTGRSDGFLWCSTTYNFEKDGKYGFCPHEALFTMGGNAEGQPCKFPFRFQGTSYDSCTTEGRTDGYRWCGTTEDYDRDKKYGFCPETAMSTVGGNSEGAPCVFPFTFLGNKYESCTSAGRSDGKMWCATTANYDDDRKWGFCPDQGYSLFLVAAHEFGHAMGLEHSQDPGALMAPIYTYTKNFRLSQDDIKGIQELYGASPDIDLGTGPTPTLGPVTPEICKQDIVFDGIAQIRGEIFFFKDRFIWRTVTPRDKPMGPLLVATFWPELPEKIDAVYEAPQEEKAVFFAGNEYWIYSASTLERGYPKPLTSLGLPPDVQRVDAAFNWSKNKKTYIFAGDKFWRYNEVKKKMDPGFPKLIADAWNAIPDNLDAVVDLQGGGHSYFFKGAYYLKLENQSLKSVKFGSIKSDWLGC
# [3] = tested on: MMP-2; assay: Substrate phage display with NGS: relative probability (RP) of P3-P1' tetramer clusters; type: biochemical, human; settings: MMP2;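 further: ratio of tetramer probability after protease selection to that in naive phage library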
# [4] = individual phage substrates, set of 1369 peptides, hyphen in sequence marks cleavage position
# [5] = individual phage substrates, set of 1369 peptides, cleavage position marked by hyphen in sequence
# [6] = RP of the P3-P1' tetramer contained in the substrate (substrate phage display with NGS)
# [7] = individual phage substrate of the set of 1369 peptides, dash in the sequence marks the cleavage position
# [8] = individual phage substrate of the set of 1369 peptides, cleavage position marked by '-'
# [9] = RP of the P3-P1' tetramer contained in the substrate
# Chain of MMP-9 (P14780 94-707): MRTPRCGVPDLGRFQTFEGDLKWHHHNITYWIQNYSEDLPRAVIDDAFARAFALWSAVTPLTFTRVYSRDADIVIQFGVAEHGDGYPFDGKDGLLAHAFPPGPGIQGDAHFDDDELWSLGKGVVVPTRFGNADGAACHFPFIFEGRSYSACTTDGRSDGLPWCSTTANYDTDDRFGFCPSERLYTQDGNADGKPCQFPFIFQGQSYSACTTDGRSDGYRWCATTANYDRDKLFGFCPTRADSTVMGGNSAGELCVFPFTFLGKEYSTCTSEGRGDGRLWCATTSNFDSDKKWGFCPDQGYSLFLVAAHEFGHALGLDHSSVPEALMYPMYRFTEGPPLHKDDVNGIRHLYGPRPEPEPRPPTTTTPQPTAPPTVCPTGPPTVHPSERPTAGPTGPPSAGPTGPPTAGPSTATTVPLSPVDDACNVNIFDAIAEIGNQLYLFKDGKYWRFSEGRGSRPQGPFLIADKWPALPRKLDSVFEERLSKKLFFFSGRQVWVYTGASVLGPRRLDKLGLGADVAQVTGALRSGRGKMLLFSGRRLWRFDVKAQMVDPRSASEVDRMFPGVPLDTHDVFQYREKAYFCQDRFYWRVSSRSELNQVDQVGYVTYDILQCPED
Substance,"Kobs [1, 4]","Kobs [2, 5]","relative probability (RP) [3, 6]","Kobs [1, 7]","Kobs [2, 8]","relative probability (RP) [3, 9]"
TTPSW-LTASG,12792.1 M⁻¹ s⁻¹,9740.44 M⁻¹ s⁻¹,35.705,,,
AGVRY-LTASG,7815.03 M⁻¹ s⁻¹,5889.62 M⁻¹ s⁻¹,18.3724,,,
QGPWH-ITASG,,,,12792.1 M⁻¹ s⁻¹,4205.91 M⁻¹ s⁻¹,10.946
GNVRN-LITAS,7386.83 M⁻¹ s⁻¹,12792.1 M⁻¹ s⁻¹,29.2567,,,
SGFRN-LRITA,201.585 M⁻¹ s⁻¹,0 M⁻¹ s⁻¹,9.821,,,
RAPSM-LTASG,7815.03 M⁻¹ s⁻¹,5889.62 M⁻¹ s⁻¹,33.0235,,,
YDTQH-LTASG,0 M⁻¹ s⁻¹,0 M⁻¹ s⁻¹,2.922,,,
RTAHN-LTASG,,,,5667.28 M⁻¹ s⁻¹,12792.1 M⁻¹ s⁻¹,23.7113
GRMLH-LRTAS,,,,836.403 M⁻¹ s⁻¹,451.441 M⁻¹ s⁻¹,8.417
HSPWF-LTASG,9740.44 M⁻¹ s⁻¹,3165.09 M⁻¹ s⁻¹,12.628,,,
GNPLP-QMTAS,1870.4 M⁻¹ s⁻¹,2157.02 M⁻¹ s⁻¹,24.381,,,
SGWAP-LLRTA,142.481 M⁻¹ s⁻¹,142.481 M⁻¹ s⁻¹,23.9342,,,
VFTRN-LTASG,,,,6396.07 M⁻¹ s⁻¹,12792.1 M⁻¹ s⁻¹,12.3403
SGPSM-LTATA,7386.83 M⁻¹ s⁻¹,9740.44 M⁻¹ s⁻¹,33.0235,,,
HYPLN-STASG,,,,8321.48 M⁻¹ s⁻¹,4335.13 M⁻¹ s⁻¹,18.9358
HGLWS-LTASG,1071.29 M⁻¹ s⁻¹,2097.28 M⁻¹ s⁻¹,8.3838,,,
QRPAQ-LTASG,12792.1 M⁻¹ s⁻¹,12792.1 M⁻¹ s⁻¹,32.8467,,,
GGSGS-LVNLL,0 M⁻¹ s⁻¹,0 M⁻¹ s⁻¹,7.225,,,

Substance,"Kobs [1, 4]","Kobs [2, 5]","relative probability (RP) [3, 6]","Kobs [1, 7]","Kobs [2, 8]","relative probability (RP) [3, 9]"
GVYRH-MRTAS,0 M⁻¹ s⁻¹,0 M⁻¹ s⁻¹,0.3212,,,
EMSWG-LTASG,231.616 M⁻¹ s⁻¹,0 M⁻¹ s⁻¹,0.1389,,,
GYPRA-FSTAS,,,,12792.1 M⁻¹ s⁻¹,12792.1 M⁻¹ s⁻¹,31.8957
DAVYG-LTASG,,,,2615.58 M⁻¹ s⁻¹,1925.41 M⁻¹ s⁻¹,17.3788
PRVHH-LTASG,,,,2615.58 M⁻¹ s⁻¹,6396.07 M⁻¹ s⁻¹,14.1228
SGYMS-LIATA,0 M⁻¹ s⁻¹,386.839 M⁻¹ s⁻¹,0.07249,,,
GDPYG-MRTAS,,,,4922.1 M⁻¹ s⁻¹,3850.82 M⁻¹ s⁻¹,27.2726
SGPVN-LISTA,,,,12792.1 M⁻¹ s⁻¹,6131.32 M⁻¹ s⁻¹,34.508
LAWAH-ITASG,,,,0 M⁻¹ s⁻¹,1030.73 M⁻¹ s⁻¹,0.05752
GMARF-LSTAS,912.511 M⁻¹ s⁻¹,2097.28 M⁻¹ s⁻¹,8.577,,,
WHPVS-LTASG,,,,12792.1 M⁻¹ s⁻¹,12792.1 M⁻¹ s⁻¹,32.502
SLNRA-LTASG,,,,4470.66 M⁻¹ s⁻¹,12792.1 M⁻¹ s⁻¹,16.7485
EQAWY-LTASG,726.013 M⁻¹ s⁻¹,1154.21 M⁻¹ s⁻¹,0.09636,,,
TTHYS-LTASG,142.481 M⁻¹ s⁻¹,0 M⁻¹ s⁻¹,0.1694,,,
GSGYS-LIALT,142.481 M⁻¹ s⁻¹,142.481 M⁻¹ s⁻¹,0.04707,,,
GTPYG-LVTAS,,,,12792.1 M⁻¹ s⁻¹,12792.1 M⁻¹ s⁻¹,32.9966
SGRRN-LMNTA,484.315 M⁻¹ s⁻¹,912.511 M⁻¹ s⁻¹,6.1579,,,
